# Data taken from patent publication US20110033393A1, “Hydrazone Compounds and Their Use” (priority 2009, published 2011).
# Columns and labels:
# [1] = system: isolated rat primary islets; assay: Insulin release from isolated primary rat islets; type: cell-based
# Experimental: Isolation of Rat Islets: Islets were isolated from 226-250 g male Sprague Dawley rats from Taconic. The animals were initially anesthetized with CO2 gas and euthanized by cervical dislocation. The pancreatic duct was injected with 15 to 30 ml of Collagenase P (Roche Diagnostics catalog #1 249 002) at 0.6 mg/ml in Hanks' Balanced Salt Solution (HBSS) (Gibco Catalog #14025-076) supplemented with BSA (Sigma, catalog #A 7409) to a final concentration of 0.1%. The pancreas was excised and placed into a 20 ml scintillation vial, incubated in a water bath at 37° C. for 16 to 18 minutes and then shaken briskly for at least 60 seconds. The digested tissue was poured into a 50 ml conical tube (1 per tube) containing cold Hank's Buffer supplemented with BSA (as above) and washed 7-10 times. […]
# Measurement of Insulin Release: Insulin release measurements were carried out in Krebs-Ringer bicarbonate buffer (118.4 mmol/liter NaCl, 4.69 mmol/liter KCl, 1.2 mmol/liter MgSO4, 1.18 mmol/liter KH2PO4, 2.4 mmol/liter CaCl2, and 20 mmol/liter NaHCO3 (equilibrated with 95% O2 and 5% CO2, pH 7.4) supplemented with BSA to a final concentration of 0.1%). […] Insulin release in the supernatant was assessed using a commercially available ELISA kit (Mercodia-Cat. #10-1124-10) according to the manufacturer's protocol. The data were expressed as pg of insulin per number of cells. […]
# Beta-TC-6 cells = assay: Insulin release enhancement in insulinoma cell line Beta-TC-6 (Assay 1); type: cell-based, mouse
# Experimental: Assay I: Insulin release enhancement by TRPM5 inhibitors was tested by the following procedure. Beta-TC-6 cells are an insulin-secreting cell line derived from transgenic mice expressing the large T-antigen of simian virus 40 (SV40) in pancreatic beta-cells as described by Poitout et al., Diabetes, 44:306-313 (1995). The cell line was obtained from ATCC cell bank CAT# CRL-11506 and grown in Dulbecco's Modified Eagle's Medium (DMEM) with 15% fetal bovine serum (FBS), 4 mM glutamine, 4.5 g/L glucose, 110 mg/L sodium pyruvate and 1× penn/strep antibiotic mix in a 37° C. incubator with 5% CO2. Cultures were routinely split 1:2 twice a week with the aid of trypsin.
# The day before the assay 0.15×10^6 Beta-TC-6 cells were plated into each well of 96 well plates (Greiner bio-one V-bottom, Cat#: 651 180). The cells were spun at 1200 rpm for 5 min and cultured overnight. […] Insulin release in the supernatant was assessed using a commercially available ELISA kit (Mercodia Cat#: 10-1149-10) according to the manufacturer's protocol. The data were expressed as pg of insulin per number of cells. […]
smiles,measurement,setting,value
"Cc1cc(/C=N/NC(=O)C2CC2c2ccccc2)cc2cccnc12 (racemic) [Example 10, trans-N′-((8-Methylquinolin-6-yl)methylene)-2-phenylcyclopropanecarbohydrazide]",insulin secretion,"[1]; 3 mM glucose, compound up to 10 μM",insulin secretion is not observed
same,insulin secretion,"[1]; 12 mM glucose, compared to the DMSO control",significant dose-dependent increase in insulin secretion
same,insulin secretion,"Beta-TC-6 cells; Beta-TC-6, in the presence of 0.3 mM glucose",does not occur
same,insulin secretion,"Beta-TC-6 cells; Beta-TC-6, in the presence of 1 mM glucose",dose-dependent increase of insulin secretion
